Where two headings read alike, the source gives them in different places.
Experiments:
[1] = target: T1, human Nav1.5 channels stably expressed in HEK 293 cells (Homo sapiens, UniProt Q14524); assay: PatchXpress 7000 automated patch-clamp, sodium current; format: cell-based; conditions: selectivity over Nav1.5
T1 construct: expressed in transfected cells
Outline: (§1)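 IC50 values came from Hill-equation fits of rundown-corrected inhibition. PatchXpress recordings at 22° C held cells 20 mV negative to V0.5 inact and applied 10 Hz trains of 30 ms steps to −20 mV (Nav1.7) or an 8000 ms prepulse 7 mV positive to V0.5 inact. […]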

[2] = target: T2, human Nav1.7 channels stably expressed in HEK 293 cells (Homo sapiens, UniProt Q15858); assay: as above; format: cell-based; conditions: 22° C.
T2 construct: expressed in transfected cells
Outline: as §1

[3] = read-out: potency for the Nav 1.7 sodium ion channel (as measured by PatchXpress)

T1 sequence (Q14524 whole entry): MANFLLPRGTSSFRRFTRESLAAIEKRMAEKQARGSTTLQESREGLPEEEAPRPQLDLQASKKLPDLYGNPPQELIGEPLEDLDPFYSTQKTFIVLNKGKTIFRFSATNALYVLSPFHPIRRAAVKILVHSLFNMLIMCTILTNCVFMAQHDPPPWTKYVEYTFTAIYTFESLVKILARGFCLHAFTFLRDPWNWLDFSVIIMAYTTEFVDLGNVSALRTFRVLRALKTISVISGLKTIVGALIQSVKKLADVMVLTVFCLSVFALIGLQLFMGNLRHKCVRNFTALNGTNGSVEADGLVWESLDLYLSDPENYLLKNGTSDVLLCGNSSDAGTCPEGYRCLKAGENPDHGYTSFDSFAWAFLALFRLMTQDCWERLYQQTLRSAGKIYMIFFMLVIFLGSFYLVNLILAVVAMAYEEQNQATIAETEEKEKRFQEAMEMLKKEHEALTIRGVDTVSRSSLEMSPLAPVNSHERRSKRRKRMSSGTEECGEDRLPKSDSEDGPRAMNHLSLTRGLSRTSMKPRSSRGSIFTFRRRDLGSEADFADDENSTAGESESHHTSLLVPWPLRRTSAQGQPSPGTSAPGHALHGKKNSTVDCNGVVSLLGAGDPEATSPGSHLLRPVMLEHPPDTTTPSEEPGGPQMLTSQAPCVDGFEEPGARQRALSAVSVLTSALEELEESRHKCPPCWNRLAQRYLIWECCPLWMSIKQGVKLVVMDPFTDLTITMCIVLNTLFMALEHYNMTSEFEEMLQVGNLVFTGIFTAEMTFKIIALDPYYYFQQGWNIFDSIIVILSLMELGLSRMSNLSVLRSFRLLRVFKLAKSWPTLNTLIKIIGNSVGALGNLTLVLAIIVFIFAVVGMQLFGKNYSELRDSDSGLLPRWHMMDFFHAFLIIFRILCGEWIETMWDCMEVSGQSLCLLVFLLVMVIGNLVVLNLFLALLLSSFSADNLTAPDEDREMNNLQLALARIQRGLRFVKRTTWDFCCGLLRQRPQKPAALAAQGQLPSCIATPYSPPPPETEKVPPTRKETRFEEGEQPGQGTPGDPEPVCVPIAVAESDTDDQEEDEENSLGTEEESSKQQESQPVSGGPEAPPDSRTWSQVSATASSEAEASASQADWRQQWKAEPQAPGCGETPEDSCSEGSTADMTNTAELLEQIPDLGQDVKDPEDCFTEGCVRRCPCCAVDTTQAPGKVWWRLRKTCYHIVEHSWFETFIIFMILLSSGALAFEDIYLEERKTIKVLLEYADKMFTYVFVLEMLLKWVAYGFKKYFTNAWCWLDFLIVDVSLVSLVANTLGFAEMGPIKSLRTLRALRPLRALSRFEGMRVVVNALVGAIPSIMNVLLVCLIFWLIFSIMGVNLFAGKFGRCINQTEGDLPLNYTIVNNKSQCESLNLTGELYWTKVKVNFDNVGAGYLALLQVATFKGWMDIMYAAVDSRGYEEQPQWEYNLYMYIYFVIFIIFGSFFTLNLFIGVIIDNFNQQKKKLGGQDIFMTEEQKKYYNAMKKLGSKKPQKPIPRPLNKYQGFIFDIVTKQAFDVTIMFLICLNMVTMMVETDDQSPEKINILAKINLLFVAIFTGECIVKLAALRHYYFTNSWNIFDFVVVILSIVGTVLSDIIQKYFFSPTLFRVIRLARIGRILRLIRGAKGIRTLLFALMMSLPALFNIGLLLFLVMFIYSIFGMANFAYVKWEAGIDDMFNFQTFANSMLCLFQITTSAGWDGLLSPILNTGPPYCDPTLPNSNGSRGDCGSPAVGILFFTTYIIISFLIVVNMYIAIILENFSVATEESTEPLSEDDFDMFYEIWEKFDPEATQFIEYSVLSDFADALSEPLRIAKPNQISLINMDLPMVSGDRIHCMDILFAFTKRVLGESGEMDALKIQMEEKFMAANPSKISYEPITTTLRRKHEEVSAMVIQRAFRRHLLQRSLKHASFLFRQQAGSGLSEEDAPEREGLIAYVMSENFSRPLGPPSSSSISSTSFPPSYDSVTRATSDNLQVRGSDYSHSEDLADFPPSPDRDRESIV
T2 sequence (Q15858 whole entry): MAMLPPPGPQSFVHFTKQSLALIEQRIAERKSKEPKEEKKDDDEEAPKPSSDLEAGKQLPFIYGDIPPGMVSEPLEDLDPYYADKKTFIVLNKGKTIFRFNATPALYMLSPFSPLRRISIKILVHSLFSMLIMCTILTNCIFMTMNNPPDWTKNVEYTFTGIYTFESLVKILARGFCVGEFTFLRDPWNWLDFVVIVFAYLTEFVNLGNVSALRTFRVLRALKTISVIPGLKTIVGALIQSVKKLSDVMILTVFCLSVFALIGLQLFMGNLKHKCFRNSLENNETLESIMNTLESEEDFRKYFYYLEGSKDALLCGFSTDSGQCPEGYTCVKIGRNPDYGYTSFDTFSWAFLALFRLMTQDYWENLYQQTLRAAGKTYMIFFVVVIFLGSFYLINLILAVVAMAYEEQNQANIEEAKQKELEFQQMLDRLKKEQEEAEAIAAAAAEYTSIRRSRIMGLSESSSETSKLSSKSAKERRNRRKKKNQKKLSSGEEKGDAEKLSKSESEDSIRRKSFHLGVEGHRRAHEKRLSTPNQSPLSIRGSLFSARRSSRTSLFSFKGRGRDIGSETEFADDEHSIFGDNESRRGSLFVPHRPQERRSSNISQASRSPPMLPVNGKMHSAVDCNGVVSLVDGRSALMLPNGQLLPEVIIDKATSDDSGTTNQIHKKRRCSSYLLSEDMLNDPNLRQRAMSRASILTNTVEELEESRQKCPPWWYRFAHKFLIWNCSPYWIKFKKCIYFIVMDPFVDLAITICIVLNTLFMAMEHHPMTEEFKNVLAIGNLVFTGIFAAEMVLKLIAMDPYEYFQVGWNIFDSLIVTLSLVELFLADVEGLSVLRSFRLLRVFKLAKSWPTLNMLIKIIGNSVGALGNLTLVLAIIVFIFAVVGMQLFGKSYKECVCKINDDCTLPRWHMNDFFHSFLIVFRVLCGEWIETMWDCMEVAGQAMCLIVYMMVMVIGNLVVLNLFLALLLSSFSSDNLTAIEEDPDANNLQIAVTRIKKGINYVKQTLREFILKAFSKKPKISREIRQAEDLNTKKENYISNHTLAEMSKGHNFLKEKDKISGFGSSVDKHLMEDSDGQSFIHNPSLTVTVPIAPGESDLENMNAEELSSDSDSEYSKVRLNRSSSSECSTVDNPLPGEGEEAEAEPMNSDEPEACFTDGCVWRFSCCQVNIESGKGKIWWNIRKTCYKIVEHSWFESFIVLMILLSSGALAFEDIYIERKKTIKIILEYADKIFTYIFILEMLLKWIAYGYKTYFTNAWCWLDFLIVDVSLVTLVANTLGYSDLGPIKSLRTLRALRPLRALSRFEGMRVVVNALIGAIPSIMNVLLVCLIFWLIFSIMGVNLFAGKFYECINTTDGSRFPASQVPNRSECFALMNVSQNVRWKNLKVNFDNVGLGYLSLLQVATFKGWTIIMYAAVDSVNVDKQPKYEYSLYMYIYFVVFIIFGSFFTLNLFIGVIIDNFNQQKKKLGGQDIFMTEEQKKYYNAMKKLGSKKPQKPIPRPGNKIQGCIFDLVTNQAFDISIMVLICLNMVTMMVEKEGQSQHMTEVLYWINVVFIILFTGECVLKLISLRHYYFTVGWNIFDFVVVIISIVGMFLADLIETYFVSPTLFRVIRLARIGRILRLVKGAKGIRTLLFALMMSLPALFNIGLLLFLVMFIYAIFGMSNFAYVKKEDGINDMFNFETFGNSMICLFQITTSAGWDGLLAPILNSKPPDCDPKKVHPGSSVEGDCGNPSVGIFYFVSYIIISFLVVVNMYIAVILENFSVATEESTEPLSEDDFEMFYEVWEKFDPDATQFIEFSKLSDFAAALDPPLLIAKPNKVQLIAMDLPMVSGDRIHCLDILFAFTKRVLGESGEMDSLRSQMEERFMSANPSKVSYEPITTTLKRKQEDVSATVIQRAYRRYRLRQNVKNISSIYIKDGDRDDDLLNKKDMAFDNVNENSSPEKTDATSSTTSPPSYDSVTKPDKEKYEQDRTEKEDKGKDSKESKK

SMILES	ratio of Nav 1.5:Nav 1.7 potency, determined by PatchXpress measurement [1]	IC50 [2, 3]	IC50 ([2]; potency for the Nav 1.7 sodium ion channel (as measured by PatchXpress))
Nc1cc2cccc(Cn3c(=O)oc4cc(S(=O)(=O)Nc5ncns5)c(F)cc43)c2cn1 [Compound 27-5, 3-((3-aminoisoquinolin-8-yl)methyl)-5-fluoro-2-oxo-N-(1,2,4-thiadiazol-5-yl)-2,3-dihydrobenzo[d]oxazole-6-sulfonamide]	450	67 nM	
O=c1oc2cc(S(=O)(=O)Nc3ncns3)ccc2n1Cc1cccc2cc(Cl)ncc12 [Compound 27-7, 3-[(3-chloroisoquinolin-8-yl)methyl]-2-oxo-N-1,2,4-thiadiazol-5-yl-2,3-dihydro-1,3-benzoxazole]	144	182 nM	
C[C@H](c1cccc(-c2ccn(C)n2)c1)n1c(=O)oc2cc(S(=O)(=O)Nc3ncns3)c(F)cc21 [Compound 28-3, (R)-5-Fluoro-3-(1-(3-(1-methyl-1H-pyrazol-3-yl)phenyl)ethyl)-2-oxo-N-(1,2,4-thiadiazol-5-yl)-2,3-dihydrobenzo[d]oxazole-6-sulfonamide]	86	306 nM	
C[C@H](c1cccc(-c2ccc(O)nc2)c1)n1c(=O)oc2cc(S(=O)(=O)Nc3ncns3)c(F)cc21 [Compound 28-4, 5-fluoro-3-{(1R)-1-[3-(6-hydroxypyridin-3-yl)phenyl]ethyl}-2-oxo-N-1,2,4-thiadiazol-5-yl-2,3-dihydro-1,3-benzoxazole-6-sulfonamide]	181	107 nM	
Cc1n[nH]cc1-c1cccc([C@@H](C)n2c(=O)oc3cc(S(=O)(=O)Nc4ncns4)c(F)cc32)c1 [Compound 28-5, 5-fluoro-3-{(1R)-1-[3-(3-methyl-1H-pyrazol-4-yl)phenyl]ethyl}-2-oxo-N-1,2,4-thiadiazol-5-yl-2,3-dihydro-1,3-benzoxazole-6-sulfonamide]	64	48 nM	
CC(c1cccc(-c2ccnc(CO)c2)c1)n1c(=O)oc2cc(S(=O)(=O)Nc3ncns3)c(F)cc21 (centres unmarked) [Compound 29-3, 5-fluoro-3-(1-{3-[2-(hydroxymethyl)pyridin-4-yl]phenyl}ethyl)-2-oxo-N-1,2,4-thiadiazol-5-yl-2,3-dihydro-1,3-benzoxazole-6-sulfonamide]	61	216 nM	
CC(c1cccc(-c2cccnc2)c1)n1c(=O)oc2cc(S(=O)(=O)Nc3ncns3)c(F)cc21 (centres unmarked) [Compound 29-4, 5-fluoro-2-oxo-3-[1-(3-pyridin-3-ylphenyl)ethyl]-N-1,2,4-thiadiazol-5-yl-2,3-dihydro-1,3-benzoxazole-6-sulfonamide]	57	162 nM	
C[C@H](c1cccc(C#CCN)c1)n1c(=O)oc2cc(S(=O)(=O)Nc3ncns3)c(F)cc21 [Compound 30-3, (R)-3-(1-(3-(3-aminoprop-1-yn-1-yl)phenyl)ethyl)-5-fluoro-2-oxo-N-(1,2,4-thiadiazol-5-yl)-2,3-dihydrobenzo[d]oxazole-6-sulfonamide]	289	28 nM	
C[C@H](c1cccc(C#CC2(N)CCCCC2)c1)n1c(=O)oc2cc(S(=O)(=O)Nc3ncns3)c(F)cc21 [Compound 30-4]	309	10 nM	
C[C@H](c1ccccc1C1CNC1)n1c(=O)oc2cc(S(=O)(=O)Nc3ncns3)c(F)cc21 [Compound 31-1, (R)-3-(1-(2-(azetidin-3-yl)phenyl)ethyl)-5-fluoro-2-oxo-N-(1,2,4-thiadiazol-5-yl)-2,3-dihydrobenzo[d]oxazole-6-sulfonamide]	603	15 nM	
C[C@H](c1ccccc1C1(O)CNC1)n1c(=O)oc2cc(S(=O)(=O)Nc3ncns3)c(F)cc21 [Compound 32-4, (R)-5-fluoro-3-(1-(2-(3-hydroxyazetidin-3-yl)phenyl)ethyl)-2-oxo-N-(1,2,4-thiadiazol-5-yl)-2,3-dihydrobenzo[d]oxazole-6-sulfonamide]	110	34 nM	
C[C@H](c1ccccc1C1(F)CNC1)n1c(=O)oc2cc(S(=O)(=O)Nc3ncns3)c(F)cc21 [Compound 32-6, (R)-5-Fluoro-3-(1-(2-(3-fluoroazetidin-3-yl)phenyl)ethyl)-2-oxo-N-(1,2,4-thiadiazol-5-yl)-2,3-dihydrobenzo[d]oxazole-6-sulfonamide]	1333	18 nM	
C[C@H](c1ccccc1CCCN)n1c(=O)oc2cc(S(=O)(=O)Nc3ncns3)c(F)cc21 [Compound 33-7, (R)-3-(1-(2-(3-Aminopropyl)phenyl)ethyl)-5-fluoro-2-oxo-N-(1,2,4-thiadiazol-5-yl)-2,3-dihydrobenzo[d]oxazole-6-sulfonamide]	166	51 nM	
C[C@@H](c1ccccc1CCCN)n1c(=O)oc2cc(S(=O)(=O)Nc3ncns3)c(F)cc21 [Compound 33-8]	179	168 nM	
C[C@H](c1ccccc1C1=CCNCC1)n1c(=O)oc2cc(S(=O)(=O)Nc3ncns3)c(Cl)cc21.Cl [Compound 34-6, (R)-5-chloro-2-oxo-3-(1-(2-(1,2,3,6-tetrahydropyridin-4-yl)phenyl)ethyl)-N-(1,2,4-thiadiazol-5-yl)-2,3-dihydrobenzo[d]oxazole-6-sulfonamide hydrochloride]	1200		25 nM
C[C@H](c1ccccc1C#CCN)n1c(=O)oc2cc(S(=O)(=O)Nc3ncns3)c(Cl)cc21 [Compound 34-8, 3-{(1R)-1-[2-(3-aminoprop-1-yn-1-yl)phenyl]ethyl}-5-chloro-2-oxo-N-1,2,4-thiadiazol-5-yl-2,3-dihydro-1,3-benzoxazole-6-sulfonamide]	40	40 nM	
C[C@H](c1cccc2c1CNCC2)n1c(=O)oc2cc(S(=O)(=O)Nc3ncns3)c(Br)cc21 [Compound 35-5, (R)-5-bromo-2-oxo-3-(1-(1,2,3,4-tetrahydroisoquinolin-8-yl)ethyl)-N-(1,2,4-thiadiazol-5-yl)-2,3-dihydrobenzo[d]oxazole-6-sulfonamide]	932	16 nM	
C[C@H](c1ccccc1C#CCN)n1c(=O)oc2cc(S(=O)(=O)Nc3ncns3)c(Br)cc21 [Compound 35-6, 3-{(1R)-1-[2-(3-aminoprop-1-yn-1-yl)phenyl]ethyl}-5-bromo-2-oxo-N-1,2,4-thiadiazol-5-yl-2,3-dihydro-1,3-benzoxazole-6-sulfonamide]	334	27 nM	
C[C@H](c1ccccc1C1=CCN(S(C)(=O)=O)CC1)n1c(=O)oc2cc(S(=O)(=O)Nc3ncns3)c(Cl)cc21 [Compound 36-1, (R)-5-chloro-3-(1-(2-(1-(methylsulfonyl)-1,2,3,6-tetrahydropyridin-4-yl)phenyl)ethyl)-2-oxo-N-(1,2,4-thiadiazol-5-yl)-2,3-dihydrobenzo[d]oxazole-6-sulfonamide]	54	527 nM	
C[C@H](c1ccccc1C1=CCN(S(C)(=O)=O)CC1)n1c(=O)oc2cc(S(=O)(=O)Nc3ncns3)c(F)cc21 [Compound 36-3, 5-fluoro-3-[(1R)-1-{2-[1-(methylsulfonyl)-1,2,3,6-tetrahydropyridin-4-yl]phenyl}ethyl]-2-oxo-N-1,2,4-thiadiazol-5-yl-2,3-dihydro-1,3-benzoxazole-6-sulfonamide]	88	255 nM	
C[C@H](c1ccccc1C#CCNS(C)(=O)=O)n1c(=O)oc2cc(S(=O)(=O)Nc3ncns3)c(Br)cc21 [Compound 36-4, 5-bromo-3-[(1R)-1-(2-{3-[(methylsulfonyl)amino]prop-1-yn-1-yl}phenyl)ethyl]-2-oxo-N-1,2,4-thiadiazol-5-yl-2,3-dihydro-1,3-benzoxazole-6-sulfonamide]	36	169 nM	
C[C@H](c1cccc2c1CN(S(C)(=O)=O)CC2)n1c(=O)oc2cc(S(=O)(=O)Nc3ncns3)c(F)cc21 [Compound 36-5, 5-fluoro-3-{(1R)-1-[2-(methylsulfonyl)-1,2,3,4-tetrahydroisoquinolin-8-yl]ethyl}-2-oxo-N-1,2,4-thiadiazol-5-yl-2,3-dihydro-1,3-benzoxazole-6-sulfonamide]	35	155 nM	
C[C@H](c1ccccc1C#CCNS(C)(=O)=O)n1c(=O)oc2cc(S(=O)(=O)Nc3ncns3)c(Cl)cc21 [Compound 36-6, 5-chloro-3-[(1R)-1-(2-{3-[(methylsulfonyl)amino]prop-1-yn-1-yl}phenyl)ethyl]-2-oxo-N-1,2,4-thiadiazol-5-yl-2,3-dihydro-1,3-benzoxazole-6-sulfonamide]	175	121 nM	
C[C@H](c1cccc2c1CC(NS(C)(=O)=O)CC2)n1c(=O)oc2cc(S(=O)(=O)Nc3ncns3)c(F)cc21 (stereo partly drawn) [Compound 36-7, 5-fluoro-3-[(1R)-1-{7-[(methylsulfonyl)amino]-5,6,7,8-tetrahydronaphthalen-1-yl)ethyl]-2-oxo-N-1,2,4-thiadiazol-5-yl-2,3-dihydro-1,3-benzoxazole-6-sulfonamide]	107	27 nM	
O=c1oc2cc(S(=O)(=O)Nc3ncns3)c(F)cc2n1[C@H](CCF)c1ccccc1 [Compound 37-3]	39	132 nM	
